In PubChem BioAssay (NCI) one finds GI50 and TGI data, which are given here for ten compounds.

Test systems include HCT-116 colon; IGROV1 ovarian; MALME-3M melanoma; NCI-H226 lung; NCI-H522 lung; OVCAR-4 ovarian; PC-3 prostate; SF-295 CNS; SF-539 CNS; UACC-62 melanoma.
Common to all, as to test: growth of human tumour cells (NCI), 48 h

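Tested at 5 concentrations; 48 h exposure; 96-well plates; endpoints linearly interpolated, else capped at highest concentration. At the GI50, growth is halved. TGI is the concentration that stops growth completely.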 Some results are limits rather than exact numbers.

Take `COc1cc2cc(Oc3ccc(NC(=O)c4ccc(Cl)c(Cl)c4)cc3)c(C)nc2cc1OC`: the GI50 with HCT-116 colon is 4.26 µM; in the assay with IGROV1 ovarian, over 100 µM; in the assay on MALME-3M melanoma, over 100 µM; in the assay on NCI-H226 lung, over 100 µM; in the assay with NCI-H522 lung it was 6.27 µM; in the assay on OVCAR-4 ovarian, 5.26 µM. The GI50 in the assay with PC-3 prostate is 4.77 µM; in the assay with SF-295 CNS, 1.59 µM; in the assay on SF-539 CNS, over 100 µM; with UACC-62 melanoma it was over 100 µM. The TGI in the assay on HCT-116 colon, in the assay with IGROV1 ovarian, with MALME-3M melanoma, in the assay with NCI-H226 lung, with NCI-H522 lung and in the assay with OVCAR-4 ovarian was over 100 µM each time. Moreover, the TGI in the assay with PC-3 prostate, in the assay with SF-295 CNS, in the assay on SF-539 CNS and in the assay with UACC-62 melanoma was over 100 µM each time.

On to `O=C(O)c1cc(CCc2cc(O)ccc2O)ccc1O`, for which the TGI in the assay with HCT-116 colon, with IGROV1 ovarian, in the assay with MALME-3M melanoma, in the assay with NCI-H226 lung, with NCI-H522 lung and with OVCAR-4 ovarian was over 100 µM each time. The TGI with PC-3 prostate, in the assay on SF-295 CNS, in the assay on SF-539 CNS and with UACC-62 melanoma was over 100 µM throughout.

In the case of `CCC(=O)Nc1ccc(N2C(=O)/C(=C/c3ccc(OC)cc3)N=C2c2ccccc2)cc1`, the GI50 is 2.41 µM in the assay with HCT-116 colon; 14.1 µM in the assay with IGROV1 ovarian; 8.93 µM in the assay on NCI-H226 lung; 48.5 µM in the assay on NCI-H522 lung; 16.2 µM in the assay with OVCAR-4 ovarian; 13.5 µM in the assay on PC-3 prostate. Further, the GI50 is 28 µM in the assay on SF-295 CNS, 5.49 µM in the assay on SF-539 CNS and 3.67 µM with UACC-62 melanoma. The TGI with HCT-116 colon is 8.9 µM; with IGROV1 ovarian it was over 50 µM; in the assay with NCI-H226 lung it was 33.7 µM; in the assay on NCI-H522 lung, over 50 µM; with OVCAR-4 ovarian it was over 50 µM; in the assay with PC-3 prostate it was over 50 µM. Besides, the TGI in the assay on SF-295 CNS is over 50 µM; in the assay with SF-539 CNS, 16 µM; in the assay with UACC-62 melanoma it was 17.7 µM.

Regarding `Cc1ccncc1C(N)=O`, the GI50 with HCT-116 colon, in the assay with IGROV1 ovarian, in the assay with MALME-3M melanoma, in the assay on NCI-H226 lung, in the assay with NCI-H522 lung and with PC-3 prostate was over 100 µM each time. Also, the GI50 with SF-295 CNS, in the assay on SF-539 CNS and with UACC-62 melanoma was over 100 µM each time. For the same compound, the TGI with HCT-116 colon, in the assay on IGROV1 ovarian, in the assay with MALME-3M melanoma, in the assay with NCI-H226 lung, in the assay with NCI-H522 lung and in the assay with PC-3 prostate was over 100 µM in each case. The TGI in the assay on SF-295 CNS, with SF-539 CNS and in the assay with UACC-62 melanoma was over 100 µM throughout.

As to `N#CCCNc1nonc1-c1nc2ccccc2n1CC(=O)c1ccc(NC(=O)[C@@H](N)CCCCN)cc1`, the GI50 was 0.04 µM in the assay on HCT-116 colon; 0.11 µM in the assay with IGROV1 ovarian; over 100 µM with MALME-3M melanoma; 0.0363 µM in the assay with NCI-H522 lung; 0.0436 µM with OVCAR-4 ovarian; 0.046 µM in the assay on PC-3 prostate. Moreover, the GI50 in the assay with SF-295 CNS was 0.016 µM; in the assay with UACC-62 melanoma it was 0.0213 µM. Besides, the TGI in the assay on HCT-116 colon, with IGROV1 ovarian, with MALME-3M melanoma, in the assay with NCI-H226 lung, in the assay on NCI-H522 lung and in the assay on OVCAR-4 ovarian was over 100 µM each time. The TGI in the assay on PC-3 prostate, with SF-295 CNS and with UACC-62 melanoma was over 100 µM each time.

On to `CN=C1OC2(c3ccccc3)C3=C(OC(=NC)N2C)C(=O)OC3(c2ccccc2)N1C` (stereo unspecified), for which the TGI in the assay with HCT-116 colon, in the assay on IGROV1 ovarian, with NCI-H226 lung, in the assay with NCI-H522 lung, in the assay with OVCAR-4 ovarian and with PC-3 prostate was over 100 µM throughout. The TGI in the assay on SF-295 CNS, in the assay on SF-539 CNS and in the assay on UACC-62 melanoma was over 100 µM throughout.

For the compound `C=C1[C@@H](O)O[C@H]2[C@H]1C[C@H](OC(C)=O)[C@]13C(=O)O[C@H]4C[C@](C)(O)[C@H]([C@H]41)C31C=C(C)[C@]2(O)O1`, the GI50 with HCT-116 colon is 19.8 µM; with IGROV1 ovarian it was 18.8 µM; in the assay with MALME-3M melanoma, 16.3 µM; in the assay on NCI-H522 lung, 4.53 µM; with OVCAR-4 ovarian, over 100 µM; in the assay with PC-3 prostate, 53.3 µM. Besides, the GI50 is 4.03 µM in the assay with SF-295 CNS, 21.1 µM in the assay on SF-539 CNS and 30.3 µM in the assay on UACC-62 melanoma. Moreover, the TGI with HCT-116 colon is 38.2 µM; in the assay on IGROV1 ovarian, 71.4 µM; in the assay with MALME-3M melanoma, 46.1 µM; in the assay on NCI-H522 lung it was 21.4 µM; with OVCAR-4 ovarian it was over 100 µM; in the assay on PC-3 prostate it was over 100 µM. Also, the TGI is over 100 µM in the assay with SF-295 CNS, 52 µM in the assay on SF-539 CNS and over 100 µM with UACC-62 melanoma.

As to `CC(CO)(Nc1ccc([N+](=O)[O-])cc1[N+](=O)[O-])C(=O)O` (stereo unspecified), the TGI in the assay with HCT-116 colon was over 100 µM; in the assay with IGROV1 ovarian, 53.7 µM; in the assay on MALME-3M melanoma, 36.1 µM; with NCI-H226 lung it was over 100 µM; with NCI-H522 lung, 39 µM; in the assay with PC-3 prostate, over 100 µM. Moreover, the TGI is over 100 µM with SF-295 CNS, 91.1 µM in the assay on SF-539 CNS and over 100 µM with UACC-62 melanoma.

For `CNNC(=NS(=O)(=O)c1cc(C#N)c(NNC)cc1S)NNC`, the TGI with HCT-116 colon, in the assay on IGROV1 ovarian, with MALME-3M melanoma, in the assay with NCI-H226 lung, in the assay with NCI-H522 lung and in the assay on OVCAR-4 ovarian was over 10 µM in each case. Moreover, the TGI with PC-3 prostate, in the assay on SF-295 CNS and with SF-539 CNS was over 10 µM in each case.

Turning to `C/C(=N\O)c1cccc(Nc2cc(-n3ccnc3)c3ccccc3n2)c1`, the GI50 in the assay with HCT-116 colon was 13.9 µM; with IGROV1 ovarian, 4.3 µM; in the assay on MALME-3M melanoma it was 11.1 µM; with NCI-H226 lung, 3.59 µM; in the assay with NCI-H522 lung it was 14.3 µM; in the assay on PC-3 prostate, 24.8 µM. Moreover, the GI50 in the assay with SF-295 CNS is 8.16 µM; in the assay with SF-539 CNS, 17.2 µM; in the assay with UACC-62 melanoma it was 6.63 µM. Also, the TGI was found to be 26.8 µM in the assay with HCT-116 colon; 20.5 µM in the assay with IGROV1 ovarian; 25.3 µM in the assay on MALME-3M melanoma; 20.9 µM in the assay with NCI-H226 lung; 30.7 µM in the assay on NCI-H522 lung; 76.6 µM in the assay on PC-3 prostate. For the same compound, the TGI in the assay with SF-295 CNS turned out to be 22.8 µM; in the assay on SF-539 CNS, 33.5 µM; in the assay on UACC-62 melanoma, 19.5 µM.
